For 5 compounds, MIC results are on record in patent US4820701A, “Penam derivatives” (Beecham Group p.l.c., priority 1987, dated 1989).

In brackets after ≈: the same amount, converted by molar mass. Counter-ions that a name gives are not always drawn.

Assay in all cases: MIC by serial dilution in agar
Holding throughout (format): cell-based

One experiment deals with P. aeruginosa K79961. The following applies: Pseudomonas aeruginosa, Iso-sensitest Agar, 10^4 colony forming units, overnight at 37° C. As for the experimental part:
(§1) Minimum Inhibitory concentration (MIC) values of compounds of the invention against E. coli JT425 and DC RTEM, K. Pneumoniae T767 and P. aeruginosa 10662 and K79961. were determined by serial dilution in Iso-sensitest Agar (from Oxoid Ltd., Basingstoke, England). The plates were inoculated with 10^4 colony forming units and incubated overnight at 37° C. The MIC values recorded in Table 1 were the lowest concentration of antibiotic to inhibit growth. Comparative data for Piperacillin which is the compound 6β-[D-2-[(4-ethyl-2,3-dioxopiperazin-1-yl)carbonylamino]-2-phenylacetamido]-penicillanic acid, sodium salt and for the compound 6α-formamido-6β-[D-2-[(4-ethyl-2,3-dioxopiperazin-1-yl)carbonylamino]-2-phenylacetamido]-penicillanic acid, sodium salt (Compound A) disclosed in U.K. GB Pat. No.-2107307B, are also given.

The next experiment deals with E. coli JT 425. The following applies: Escherichia coli, JT425; Iso-sensitest Agar, 10^4 colony forming units, overnight at 37° C. The protocol: as §1
The subject of a further experiment is E. coli DC RTEM. To be noted: Escherichia coli. As for the experimental part: as §1
The test system of the next experiment is P. aeruginosa 10662. To be noted: Pseudomonas aeruginosa, Iso-sensitest Agar, 10^4 colony forming units, overnight at 37° C. As for the experimental part: as §1
Another experiment deals with K. pneumoniae T767. The following applies: Klebsiella pneumoniae, Iso-sensitest Agar, 10^4 colony forming units, overnight at 37° C. As for the experimental part:
as §1

One may read the MIC as the smallest concentration in the dilution series that meets the test's criterion for growth inhibition.

Regarding `CCN1CCN(C(=O)N[C@@H](C(=O)N[C@]2(NC=O)C(=O)N3[C@@H](C(=O)O)C(C)(C)S[C@@H]32)c2ccccc2)C(=O)C1=O` [Compound A, 6α-formamido-6β-[D-2-[(4-ethyl-2,3-dioxopiperazin-1-yl)carbonylamino]-2-phenylacetamido]-penicillanic acid, sodium salt, reference compound], the MIC came out at 2 µg/mL in the experiment with P. aeruginosa K79961; 8 µg/mL against E. coli JT 425; 4 µg/mL against E. coli DC RTEM; 16 µg/mL against P. aeruginosa 10662; 4 µg/mL with K. pneumoniae T767.

Take `CCN1CCN(C(=O)N[C@@H](C(=O)N[C@]2(NC=O)C(=O)N3[C@@H](C(=O)O)[C@](C)(COC(=O)c4ccc(OC(C)=O)c(OC(C)=O)c4)S[C@@H]32)c2ccccc2)C(=O)C1=O` [Example 1]: the MIC with P. aeruginosa K79961 was determined as 0.06 µg/mL (≈ 0.0753 µM); against E. coli JT 425, 0.5 µg/mL (≈ 0.628 µM); in the experiment with E. coli DC RTEM, 0.12 µg/mL (≈ 0.151 µM); in the experiment with P. aeruginosa 10662 it was 0.25 µg/mL (≈ 0.314 µM); against K. pneumoniae T767, 0.12 µg/mL (≈ 0.151 µM).

Turning to `CCN1CCN(C(=O)N[C@@H](C(=O)N[C@]2(NC=O)C(=O)N3[C@@H](C(=O)O)[C@](C)(COC(=O)c4ccc(O)c(O)c4)S[C@@H]32)c2ccccc2)C(=O)C1=O` [Example 2, Sodium 6β-[R,2-(4-ethyl-2,3-dioxopiperazin-1-yl)carbonylamino-2-phenylacetamido]-6α-formamido-2β-(3,4-dihydroxybenzoyloxy)methyl-2α-methylpenam-3-carboxylate], the MIC in the experiment with P. aeruginosa K79961 is less than 0.03 µg/mL; with E. coli JT 425, 0.5 µg/mL; in the experiment with E. coli DC RTEM, less than 0.03 µg/mL; with P. aeruginosa 10662, 0.12 µg/mL; in the experiment with K. pneumoniae T767, 0.12 µg/mL.

In the case of `CCN1CCN(C(=O)N[C@@H](C(=O)N[C@@H]2C(=O)N3[C@@H]2S[C@@](C)(COC(=O)c2ccc(OC(C)=O)c(OC(C)=O)c2)[C@@H]3C(=O)O)c2ccccc2)C(=O)C1=O` [Example 3, Sodium 2β-(3,4-diacetoxybenzoyloxy)methyl-6β-[R,2-(4-ethyl-2,3-dioxopiperazin-1-yl)carbonylamino-2-phenylacetamido]-2α-methylpenam-3-carboxylate], the MIC against P. aeruginosa K79961 was less than 0.03 µg/mL; against E. coli JT 425, 1 µg/mL; against E. coli DC RTEM, 4 µg/mL; against P. aeruginosa 10662 it was less than 0.03 µg/mL; with K. pneumoniae T767, 0.25 µg/mL.

Consider `CCN1CCN(C(=O)N[C@@H](C(=O)N[C@@H]2C(=O)N3[C@@H]2SC(C)(C)[C@@H]3C(=O)O)c2ccccc2)C(=O)C1=O` [Piperacillin, 6β-[D-2-[(4-ethyl-2,3-dioxopiperazin-1-yl)carbonylamino]-2-phenylacetamido]-penicillanic acid, sodium salt, reference compound], for which the MIC against P. aeruginosa K79961 is greater than 0.06 µg/mL; in the experiment on E. coli JT 425, 16 µg/mL; in the experiment with E. coli DC RTEM it was greater than 128 µg/mL; with P. aeruginosa 10662, 2 µg/mL; against K. pneumoniae T767 it was 2 µg/mL.
